Experimental data taken from patent US20140213446A1, “HERBICIDAL COMPOSITIONS AND METHODS USING COMBINATIONS OF 4-AMINO-3-CHLORO-6-(4-CHLORO-2-FLUORO-3-METHOXYPHENYL)PYRIDINE-2-CARBOXYLIC ACID OR A DERIVATIVE THEREOF AND AN ARYLOXYPHENOXY PROPIONATE ACCASE INHIBITOR HERBICIDE” (DOW AGROSCIENCES LLC, priority 2013, published 2014).
“And” between values parts separate entries of the source, which are not always exact repeats. Identical values can stand only once.

Legend:
Experiment in all cases: Postemergent herbicidal activity, greenhouse
Assay type in all cases: in vivo
[1] = test system: AVEFA Avena fatua L. (wild oat)
Protocol: (§1) Evaluation of Postemergent Herbicidal Activity. Seeds or nutlets of the desired test plant species were planted in Sun Gro Metro-Mix® 360 planting mixture, which typically has a pH of 6.0 to 6.8 and an organic matter content of about 30 percent, in plastic pots with a surface area of 64 square centimeters (cm^2). When required to ensure good germination and healthy plants, a fungicide treatment and/or other chemical or physical treatment was applied. The plants were grown for 7-21 days (d) in a greenhouse with an approximate 15 hour (h) photoperiod which was maintained at about 23-29° C. during the day and 22-28° C. during the night. Nutrients and water were added on a regular basis and supplemental lighting was provided with overhead metal halide 1000-Watt lamps as necessary. The plants were employed for testing when they reached the first or second true leaf stage.
(§2) A weighed amount, determined by the highest rate to be tested, of each test compound was placed in a 25 milliliter (mL) glass vial and was dissolved in 4 mL of a 97:3 volume per volume (v/v) mixture of acetone and dimethyl sulfoxide (DMSO) to obtain concentrated stock solutions. […] The concentrated stock solutions obtained were diluted with 20 mL of an aqueous mixture containing acetone, water, isopropyl alcohol, DMSO, Atplus 411F crop oil concentrate, and Triton® X-155 surfactant in a 48.5:39:10:1.5:1.0:0.02 v/v ratio to obtain spray solutions containing the highest application rates. Additional application rates were obtained by serial dilution of 12 mL of the high rate solution into a solution containing 2 mL of a 97:3 v/v mixture of acetone and DMSO and 10 mL of an aqueous mixture containing acetone, water, isopropyl alcohol, DMSO, Atplus 411F crop oil concentrate, and Triton X-155 surfactant in a 48.5:39:10:1.5:1.0:0.02 v/v ratio to obtain ½X, ¼X, ⅛X and 1/16X rates of the high rate. Compound requirements are based upon a 12 mL application volume at a rate of 187 liters per hectare (L/ha). Formulated compounds were applied to the plant material with an overhead Mandel track sprayer equipped with 8002E nozzles calibrated to deliver 187 L/ha over an application area of 0.503 square meters (m^2) at a spray height of 18 inches ([…]) above the average plant canopy height. Control plants were sprayed in the same manner with the solvent blank.
(§3) Treatments consisted of the methyl ester of 4-amino-3-chloro-6-(4-chloro-2-fluoro-3-methoxyphenyl)pyridine-2-carboxylic acid (Cmpd 1) as technical grade material and fluazifop-P-butyl (Fusilade® DX), haloxyfop-P-methyl (GALLANT® super), and quizalofop-P-ethyl (Assure® II) alone and in combination. The form of compound of formula (I) and fluazifop-P-butyl, haloxyfop-P-methyl, and quizalofop-P-ethyl were applied on an acid equivalent basis.
(§4) The treated plants and control plants were placed in a greenhouse as described above and watered by subirrigation to prevent wash-off of the test compounds. After 14 d, the condition of the test plants as compared with that of the untreated plants was determined visually and scored on a scale of 0 to 100 percent where 0 corresponds to no injury and 100 corresponds to complete kill.
(§5) Results of testing mixtures in accordance with this disclosure and of the components of the mixtures separately against various common weeds in greenhouse trials are reported in the following tables. The reported values are of percent (%) control or percent (%) injury, visually rated. Colby's equation was used to determine the herbicidal effects expected from the mixtures (Colby, S. R. Calculation of the synergistic and antagonistic response of herbicide combinations. Weeds 1967, 15, 20-22.).
(§6) More specifically, the following equation was used to calculate the expected activity of mixtures containing two active ingredients, A and B:
(§7) A=observed efficacy of active ingredient A at the same concentration as used in the mixture; B=observed efficacy of active ingredient B at the same concentration as used in the mixture. […]

[2] = test system: EPHHL Euphorbia heterophylla L. (wild poinsettia)
Protocol: as §1, §2, §3, §4, §5, §6, §7

[3] = test system: CYPES Cyperus esculentus L. (yellow nutsedge)
Protocol: as §1, §2, §3, §4, §5, §6, §7

[4] = test system: IPOHE Ipomoea hederacea (L.) Jacq. (ivyleaf momingglory)
Protocol: as §1, §2, §3, §4, §5, §6, §7

[5] = test system: HELAN Helianthus annuus L. (common sunflower)
Protocol: as §1, §2, §3, §4, §5, §6, §7

[6] = test system: SETFA Setaria faberi Herrm. (giant foxtail)
Protocol: as §1, §2, §3, §4, §5, §6, §7

[7] = test system: STEME Stellaria media (L.) Vill. (common chickweed)
Protocol: as §1, §2, §3, §4, §5, §6, §7

[8] = test system: ABUTH Abutilon theophrasti Medik. (velvetleaf)
Protocol: as §1, §2, §3, §4, §5, §6, §7

[9] = test system: BRSNW Brassica napus (winter oilseed rape)
Protocol: as §1, §2, §3, §4, §5, §6, §7

[10] = test system: CIRAR Cirsium arvense (L.) Scop. (Canada thistle)
Protocol: as §1, §2, §3, §4, §5, §6, §7

[11] = test system: GLXMA Glycine max (soybean)
Protocol: as §1, §2, §3, §4, §5, §6, §7

[12] = test system: DIGSA Digitaria sanguinalis (L.) Scop. (large crabgrass)
Protocol: as §1, §2, §3, §4, §5, §6, §7

[13] = test system: VIOTR Viola tricolor L. (wild violet)
Protocol: as §1, §2, §3, §4, §5, §6, §7

[14] = test system: AMARE Amaranthus retroflexus L. (redroot pigweed)
Protocol: as §1, §2, §3, §4, §5, §6, §7

[15] = test system: SORVU Sorghum vulgare (common sorghum)
Protocol: as §1, §2, §3, §4, §5, §6, §7

[16] = test system: CHEAL Chenopodium album L. (common lambsquarters)
Protocol: as §1, §2, §3, §4, §5, §6, §7

Measured: Visual Growth Reduction (%) 14 DAA Obs

COC(=O)c1nc(-c2ccc(Cl)c(OC)c2F)cc(N)c1Cl [Cmpd 1, methyl ester of 4-amino-3-chloro-6-(4-chloro-2-fluoro-3-methoxyphenyl)pyridine-2-carboxylic acid]
50% and 30%: [10]; Cmpd 1 2.5 g ae/ha
80%: [8]; Cmpd 1 1.25 g ae/ha | [16]; Cmpd 1 2.5 g ae/ha
0%: [1]; Cmpd 1 1.25 g ae/ha | [1]; Cmpd 1 2.5 g ae/ha | [1]; Cmpd 1 5 g ae/ha | [6]; Cmpd 1 1.25 g ae/ha | [6]; Cmpd 1 2.5 g ae/ha | [9]; Cmpd 1 1.25 g ae/ha | [12]; Cmpd 1 1.25 g ae/ha | [12]; Cmpd 1 2.5 g ae/ha | [12]; Cmpd 1 5 g ae/ha | [15]; Cmpd 1 1.25 g ae/ha | [15]; Cmpd 1 2.5 g ae/ha | [15]; Cmpd 1 5 g ae/ha
40%: [5]; Cmpd 1 5 g ae/ha | [7]; Cmpd 1 5 g ae/ha
50%: [3]; Cmpd 1 1.25 g ae/ha | [14]; Cmpd 1 1.25 g ae/ha
85%: [8]; Cmpd 1 2.5 g ae/ha
5%: [9]; Cmpd 1 2.5 g ae/ha
10%: [4]; Cmpd 1 1.25 g ae/ha | [13]; Cmpd 1 1.25 g ae/ha | [13]; Cmpd 1 2.5 g ae/ha
70%: [11]; Cmpd 1 1.25 g ae/ha | [16]; Cmpd 1 1.25 g ae/ha
60%: [14]; Cmpd 1 2.5 g ae/ha
30%: [6]; Cmpd 1 5 g ae/ha | [7]; Cmpd 1 1.25 g ae/ha | [10]; Cmpd 1 1.25 g ae/ha | [10]; Cmpd 1 5 g ae/ha | [13]; Cmpd 1 5 g ae/ha
90%: [3]; Cmpd 1 2.5 g ae/ha | [8]; Cmpd 1 5 g ae/ha | [14]; Cmpd 1 5 g ae/ha
95%: [2]; Cmpd 1 1.25 g ae/ha | [2]; Cmpd 1 2.5 g ae/ha | [2]; Cmpd 1 5 g ae/ha | [11]; Cmpd 1 2.5 g ae/ha
97%: [11]; Cmpd 1 5 g ae/ha
20%: [4]; Cmpd 1 2.5 g ae/ha | [4]; Cmpd 1 5 g ae/ha | [5]; Cmpd 1 1.25 g ae/ha | [5]; Cmpd 1 2.5 g ae/ha | [7]; Cmpd 1 2.5 g ae/ha | [9]; Cmpd 1 5 g ae/ha
93%: [3]; Cmpd 1 5 g ae/ha | [16]; Cmpd 1 5 g ae/ha
